Molecules are shown by their SMILES.

The test system of the assay is AP-1 induced transcriptional activity. Description: Cellular Transrepressional Assay (AP-1 luciferase reporter in A549 cells). The assay is classed as cell-based. The settings on record: Homo sapiens, A549 cells stably transfected with pAP-1-Luc, 10 ng/ml PMA, 7 hours; for Emax: maximum inhibition, read-out: AP-1 Max % inh (Cellular Transrepression Assay); for EC50: read-out: AP-1 EC50, nM (Cellular Transrepression Assay). On the procedure:
To measure the ability of test molecules to inhibit AP-1 induced transcriptional activity we utilized an A549 cell which was stably transfected with a plasmid containing 7×AP-1 DNA binding sites (pAP-1-Luc plasmid, Stratagene Co. La Jolla, Calif.) followed by the gene for luciferase. Cells were activated with 10 ng/ml of phorbol myristic acid (PMA) plus or minus test molecules for 7 hours. After 7 hours a luciferase reagent was added to measure luciferase enzymatic activity in the cell. After a 10 minute incubation of luciferase reagent with cells, luminescence was measured in a TopCount luminescence counter. Repression of AP-1 activity was calculated as the percentage decrease in the signal induced by PMA alone. Test molecules were analyzed in the concentration range from 0.1 nM to 40 μM. EC50 values were determined by using standard curve fitting methods such as Excel fit (Microsoft Co.).
A general note: Reporter assays use an easily measured gene product as a stand-in for the process of interest.

One may read the EC50 as the concentration that produces a half-maximal response. As to `C[C@]12Cn3cnc(-c4ccccc4)c3C=C1CCC[C@@H]2[C@](C)(O)c1csc2ccccc12` (racemic) [Example 15], the Emax stood at 42.7% and the EC50 is 145 nM.

With `C[C@]12Cn3cnc(-c4ccccc4)c3C=C1CCC[C@@H]2[C@](C)(O)c1csc2ccccc12` (single isomer, unassigned) [Example 31], the Emax was 41.2% and the EC50 worked out at 181 nM.

For the compound `C[C@]12Cn3cnc(-c4ccc(F)cc4)c3C=C1CCC[C@@H]2[C@](C)(O)c1cccs1` [Example 1, (S)-1-((5aR,6S)-1-(4-Fluorophenyl)-5a-methyl-5,5a,6,7,8,9-hexahydroimidazo[1,5-b]isoquinolin-6-yl)-1-(thiophen-2-yl)ethanol], the Emax was 38.1% and the EC50 is 21.4 nM.

For the compound `CN(C)C(=O)c1ccc([C@@](C)(O)[C@H]2CCCC3=Cc4c(-c5ccc(F)cc5)ncn4C[C@@]32C)s1` [Example 3, 5-((S)-1-((5aR,6S)-1-(4-Fluorophenyl)-5a-methyl-5,5a,6,7,8,9-hexahydroimidazo[1,5-b]isoquinolin-6-yl)-1-hydroxyethyl)-N,N-dimethylthiophene-2-carboxamide], the Emax turned out to be 29.5% and the EC50 was found to be 267 nM.

As to `C[C@]12Cn3cnc(-c4ccc(F)cc4)c3C=C1CCC[C@@H]2CCNc1nncs1` [Example 5, N-(2-((5aR,6R)-1-(4-Fluorophenyl)-5a-methyl-5,5a,6,7,8,9-hexahydroimidazo[1,5-b]isoquinolin-6-yl)ethyl)-1,3,4-thiadiazol-2-amine], the Emax was 22.6% and the EC50 came to 98 nM.

As to `C[S+]([O-])c1cccc([C@@](C)(O)[C@H]2CCCC3=Cc4c(-c5ccc(F)cc5)ncn4C[C@@]32C)c1` (stereo partly drawn) [Example 8b, (1S)-1-((5aR,6S)-1-(4-fluorophenyl)-5a-methyl-5,5a,6,7,8,9-hexahydroimidazo[1,5-b]isoquinolin-6-yl)-1-(3-(methylsulfinyl)phenyl)ethanol], the Emax was found to be 40.7% and the EC50 is 236 nM.

Take `CC(C)(O)c1cccc([C@@](C)(O)[C@H]2CCCC3=Cc4c(-c5ccc(F)cc5)ncn4C[C@@]32C)c1` [Example 9, 2-(3-((S)-1-((5aR,6S)-1-(4-Fluorophenyl)-5a-methyl-5,5a,6,7,8,9-hexahydroimidazo[1,5-b]isoquinolin-6-yl)-1-hydroxyethyl)phenyl)propan-2-ol]: the Emax was found to be 34.3% and the EC50 was found to be 144 nM.

Take `C[C@]12Cn3cnc(-c4ccc(F)cc4)c3C=C1CCC[C@@H]2[C@](C)(O)C(F)(F)F` [Example 10, (S)-1,1,1-Trifluoro-2-((5aR,6S)-1-(4-fluorophenyl)-5a-methyl-5,5a,6,7,8,9-hexahydroimidazo[1,5-b]isoquinolin-6-yl)propan-2-ol]: the Emax came to 31.3% and the EC50 worked out at 30.9 nM.

Consider `C[C@]12Cn3cnc(-c4ccc(F)cc4)c3C=C1CCC[C@@H]2[C@](C)(O)c1ccc(F)cc1` [Example 48], for which the Emax turned out to be 35.6% and the EC50 amounted to 11.9 nM.

With `C[C@]12Cn3cnc(-c4ccc(F)cc4)c3C=C1CCC[C@@H]2[C@](C)(O)c1ccc(Cl)cc1` [Example 53], the Emax is 44.6% and the EC50 was 63.2 nM.

For the compound `C[C@]12Cn3cnc(-c4ccc(F)cc4)c3C=C1CCC[C@@H]2[C@](C)(O)c1ccsc1` [Example 54], the Emax is 42.7% and the EC50 amounted to 4.67 nM.

`C[C@]12Cn3cnc(-c4ccc(F)cc4)c3C=C1CCC[C@@H]2[C@](C)(O)Cc1ccc(F)cc1` [Example 55]: the Emax is 53.7% and the EC50 is 84.2 nM.

For `C[C@]12Cn3cnc(-c4ccc(F)cc4)c3C=C1CCC[C@@H]2[C@](C)(O)c1ccc(F)c(Cl)c1` [Example 56], the Emax was determined as 39.6% and the EC50 came out at 19.3 nM.

With `C=CC[C@@](C)(O)[C@H]1CCCC2=Cc3c(-c4ccc(F)cc4)ncn3C[C@@]21C` [Example 57], the Emax was determined as 55.9% and the EC50 stood at 56.6 nM.
